# Assay results from PubChem BioAssay (NCI).
#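 A five-concentration, 48-hour dose response in 96-well plates underlies each endpoint, interpolated linearly between surrounding concentrations. TGI: concentration producing complete growth inhibition.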 Where a SMILES comes first, the peptide text is derived from it. [ ]: non-standard residue; d: D form. The star is where a group is joined. NMeAc5c = CNC1(C(=O)O)CCCC1; Boc = CC(C)(C)OC(=O)*; OBn = c1ccc(CO*)cc1
# System: SR leukemia
# Assay: inhibition of tumour cell growth, NCI panel, 48 h
row,SMILES,TGI [µM]
1,NC(N)=N/N=C/c1c(-c2ccc(N)cc2)nc2sccn12,89.3
2,CCCCCCc1cc2cc(-c3csc(CC#N)n3)c(=O)oc2cc1O,> 100
3,COc1cc(Br)cc2cc(-c3cn4ccsc4n3)c(=O)oc12,> 100
4,Nn1c(-c2ccccc2)nn(C(=O)c2ccccc2)c1=O,> 100
5,O=c1[nH]c(Nc2cccc(CC(F)(F)F)c2)nc2nc[nH]c12,> 100
6,Nc1nc(SCCc2ccccc2)c2[nH]cnc2n1,> 100
7,COc1ccc(C2CC(c3c(O)ccc4ccccc34)=NN2C(C)=O)cc1OC (configuration not stated),40.6
8,COc1cc2c(c(OC)c1OC)C(=O)[C@@H]1[C@H]2N1C(N)=O,> 100
9,COc1ccc2cc(NC(=O)N/N=C\c3ccc([N+](=O)[O-])cc3)ccc2c1,> 100
10,C[C@@H]1CC[C@]2(C(=O)O)CC[C@]3(C)C(=CC[C@@H]4[C@@]5(C)CC[C@H](O)C(C)(C)[C@@H]5CC[C@]43C)[C@@H]2[C@]1(C)O,30
11,CN1CCc2cc(N)cc3c2C1Cc1ccc(O)c(O)c1-3 (configuration not stated),> 100
12,O=C1CCCSC(=O)N1Cc1ccccc1,> 100
13,COC(=O)c1c(C)cccc1C1CN=NC12Cc1ccc(C)cc1C2=O (configuration not stated),> 100
14,CCCN(C(=O)c1ccccc1)C(C#N)c1ccc(C(C#N)N(CCC)C(=O)c2ccccc2)cc1 (configuration not stated),> 100
15,COC(=O)c1ccccc1CC1Cc2ccc3c(c2C1=O)CCCC3 (configuration not stated),24.5
16,c1ccc(N=c2sc3ccccc3nc2Nc2ccccc2)cc1,> 100
17,CCOC(=O)c1csc(NC(=O)CN2CCOCC2)n1,> 100

row,SMILES,TGI [µM]
1,O=C1/C(=C/c2ccccc2)N=C2Sc3c(nc[nH]c3=O)N12,68
2,C=CC1(C)CCC2C(=CCC3C2(C)CC(O)C(O)C3(C)COC2OC(C(=O)O)C(O)C(O)C2O)C1 (configuration not stated) (tested in a mixture with another compound),> 100
3,N#Cc1c(N2CCCC2)ncn(-c2ccccc2)c1=O,> 100
4,N#CC1(C#N)N[C@@H](c2ccsc2)[C@H]2C(=O)N(c3ccccc3)C(=O)[C@H]21,78.7
5,O=[N+]([O-])c1ccc2c(c1)/C(=N/N=C1c3ccccc3Cc3ccccc31)c1cc([N+](=O)[O-])cc([N+](=O)[O-])c1-2,> 25.7
6,CN(C(=O)C(Cc1ccccc1)NC(=O)OC(C)(C)C)C1(C(=O)NC(Cc2ccccc2)C(=O)OCc2ccccc2)CCCC1 (stereo not drawn) (Boc-Phe-[NMeAc5c]-Phe-OBn; configuration not given here),69.1
7,Cc1ccc([N+](=O)[O-])cc1NC1=NCCO1,> 100
8,O=c1ccc(-c2ccccc2)n[nH]1,> 100
9,CCOC(=O)C(SCCO)C(C(=O)OCC)n1cnc2c(=O)[nH]c(NC(C)=O)nc21 (configuration not stated),> 100
10,C#CCNC(CS)C(=O)O (configuration not stated),> 100
11,Cc1ccc(N=NC(=Nc2ccccc2)c2ccc(N(CCC#N)CCC#N)cc2)cc1,> 100
12,Cc1ccccc1C(=O)N1CCc2c([nH]c3ccccc23)C1,50
13,NC(=O)NCCCC(NC(=O)OCCCCn1ccc(=O)[nH]c1=O)C(=O)O (configuration not stated),> 100
14,COc1ccc2c(c1)/C(=C/CCN(C)C)c1ccccc1S2,> 100
15,NS(=O)(=O)c1ccc2c(c1)OCCOCCOCCOCCO2,> 100
16,CCOC(=O)/C=C/CC(C)(C)CCOC(C)=O,> 10
17,COC(=O)C([C@H](NC1(c2ccccc2)c2ccccc2-c2ccccc21)C(=O)OC)N(NC(=O)OCc1ccccc1)C(=O)OCc1ccccc1 (mixture of isomers),> 100

# System: HS 578T breast
# Assay: inhibition of tumour cell growth, NCI panel, 48 h
row,SMILES,TGI [µM]
1,COc1cc(C(=O)N(C(=S)OCc2ccccn2)c2ccccc2)cc(OC)c1OC,> 100
2,CCCCCCCCCCCCCCNC(=O)CCC(NC(=O)c1ccc(N(C)Cc2cnc3nc(N)nc(N)c3n2)cc1)C(=O)NCCCCCCCCCCCCCC (configuration not stated),29.1
3,COc1ccc(N/N=C2\CCOc3ccc(C)cc3C2=O)cc1,> 100
4,NC(N)=N/N=C/c1c(-c2ccc(N)cc2)nc2sccn12,> 100
5,CCCCCCc1cc2cc(-c3csc(CC#N)n3)c(=O)oc2cc1O,> 100
6,COc1cc(Br)cc2cc(-c3cn4ccsc4n3)c(=O)oc12,> 100
7,Nn1c(-c2ccccc2)nn(C(=O)c2ccccc2)c1=O,> 100
8,O=c1[nH]c(Nc2cccc(CC(F)(F)F)c2)nc2nc[nH]c12,> 100
9,Nc1nc(SCCc2ccccc2)c2[nH]cnc2n1,> 100
10,COc1ccc(C2CC(c3c(O)ccc4ccccc34)=NN2C(C)=O)cc1OC (configuration not stated),> 100
11,COc1cc2c(c(OC)c1OC)C(=O)[C@@H]1[C@H]2N1C(N)=O,> 100
12,COc1ccc2cc(NC(=O)N/N=C\c3ccc([N+](=O)[O-])cc3)ccc2c1,> 100
13,C[C@@H]1CC[C@]2(C(=O)O)CC[C@]3(C)C(=CC[C@@H]4[C@@]5(C)CC[C@H](O)C(C)(C)[C@@H]5CC[C@]43C)[C@@H]2[C@]1(C)O,16.1
14,CN1CCc2cc(N)cc3c2C1Cc1ccc(O)c(O)c1-3 (configuration not stated),> 100
15,O=C1CCCSC(=O)N1Cc1ccccc1,> 100
16,COC(=O)c1c(C)cccc1C1CN=NC12Cc1ccc(C)cc1C2=O (configuration not stated),> 100
17,CCCN(C(=O)c1ccccc1)C(C#N)c1ccc(C(C#N)N(CCC)C(=O)c2ccccc2)cc1 (configuration not stated),86.7
18,COC(=O)c1ccccc1CC1Cc2ccc3c(c2C1=O)CCCC3 (configuration not stated),> 100
19,c1ccc(N=c2sc3ccccc3nc2Nc2ccccc2)cc1,> 100

row,SMILES,TGI [µM]
1,CCOC(=O)c1csc(NC(=O)CN2CCOCC2)n1,> 100
2,O=C1/C(=C/c2ccccc2)N=C2Sc3c(nc[nH]c3=O)N12,> 100
3,C=CC1(C)CCC2C(=CCC3C2(C)CC(O)C(O)C3(C)COC2OC(C(=O)O)C(O)C(O)C2O)C1 (configuration not stated) (tested in a mixture with another compound),> 100
4,N#Cc1c(N2CCCC2)ncn(-c2ccccc2)c1=O,> 100
5,N#CC1(C#N)N[C@@H](c2ccsc2)[C@H]2C(=O)N(c3ccccc3)C(=O)[C@H]21,> 100
6,O=[N+]([O-])c1ccc2c(c1)/C(=N/N=C1c3ccccc3Cc3ccccc31)c1cc([N+](=O)[O-])cc([N+](=O)[O-])c1-2,6.81
7,CN(C(=O)C(Cc1ccccc1)NC(=O)OC(C)(C)C)C1(C(=O)NC(Cc2ccccc2)C(=O)OCc2ccccc2)CCCC1 (stereo not drawn) (Boc-Phe-[NMeAc5c]-Phe-OBn; configuration not given here),> 100
8,Cc1ccc([N+](=O)[O-])cc1NC1=NCCO1,> 100
9,O=c1ccc(-c2ccccc2)n[nH]1,> 100
10,CCOC(=O)C(SCCO)C(C(=O)OCC)n1cnc2c(=O)[nH]c(NC(C)=O)nc21 (configuration not stated),> 100
11,C#CCNC(CS)C(=O)O (configuration not stated),> 100
12,Cc1ccc(N=NC(=Nc2ccccc2)c2ccc(N(CCC#N)CCC#N)cc2)cc1,> 100
13,Cc1ccccc1C(=O)N1CCc2c([nH]c3ccccc23)C1,84.8
14,NC(=O)NCCCC(NC(=O)OCCCCn1ccc(=O)[nH]c1=O)C(=O)O (configuration not stated),> 100
15,COc1ccc2c(c1)/C(=C/CCN(C)C)c1ccccc1S2,> 100
16,NS(=O)(=O)c1ccc2c(c1)OCCOCCOCCOCCO2,> 100
17,CCOC(=O)/C=C/CC(C)(C)CCOC(C)=O,> 10
18,COC(=O)C([C@H](NC1(c2ccccc2)c2ccccc2-c2ccccc21)C(=O)OC)N(NC(=O)OCc1ccccc1)C(=O)OCc1ccccc1 (mixture of isomers),> 100

# System: UO-31 renal
# Assay: inhibition of tumour cell growth, NCI panel, 48 h
row,SMILES,TGI [µM]
1,COc1cc(C(=O)N(C(=S)OCc2ccccn2)c2ccccc2)cc(OC)c1OC,86.5
2,CCCCCCCCCCCCCCNC(=O)CCC(NC(=O)c1ccc(N(C)Cc2cnc3nc(N)nc(N)c3n2)cc1)C(=O)NCCCCCCCCCCCCCC (configuration not stated),53.6
3,COc1ccc(N/N=C2\CCOc3ccc(C)cc3C2=O)cc1,> 100
4,NC(N)=N/N=C/c1c(-c2ccc(N)cc2)nc2sccn12,39.2
5,CCCCCCc1cc2cc(-c3csc(CC#N)n3)c(=O)oc2cc1O,> 78.6
6,COc1cc(Br)cc2cc(-c3cn4ccsc4n3)c(=O)oc12,> 100
7,Nn1c(-c2ccccc2)nn(C(=O)c2ccccc2)c1=O,> 100
8,O=c1[nH]c(Nc2cccc(CC(F)(F)F)c2)nc2nc[nH]c12,> 100
9,Nc1nc(SCCc2ccccc2)c2[nH]cnc2n1,> 100
10,COc1ccc(C2CC(c3c(O)ccc4ccccc34)=NN2C(C)=O)cc1OC (configuration not stated),83.3
11,COc1cc2c(c(OC)c1OC)C(=O)[C@@H]1[C@H]2N1C(N)=O,> 100
12,COc1ccc2cc(NC(=O)N/N=C\c3ccc([N+](=O)[O-])cc3)ccc2c1,46.4
13,C[C@@H]1CC[C@]2(C(=O)O)CC[C@]3(C)C(=CC[C@@H]4[C@@]5(C)CC[C@H](O)C(C)(C)[C@@H]5CC[C@]43C)[C@@H]2[C@]1(C)O,23.5
14,CN1CCc2cc(N)cc3c2C1Cc1ccc(O)c(O)c1-3 (configuration not stated),95.9
15,COC(=O)c1c(C)cccc1C1CN=NC12Cc1ccc(C)cc1C2=O (configuration not stated),> 100
16,CCCN(C(=O)c1ccccc1)C(C#N)c1ccc(C(C#N)N(CCC)C(=O)c2ccccc2)cc1 (configuration not stated),> 100
17,COC(=O)c1ccccc1CC1Cc2ccc3c(c2C1=O)CCCC3 (configuration not stated),> 100
18,c1ccc(N=c2sc3ccccc3nc2Nc2ccccc2)cc1,> 100

row,SMILES,TGI [µM]
1,CCOC(=O)c1csc(NC(=O)CN2CCOCC2)n1,> 100
2,O=C1/C(=C/c2ccccc2)N=C2Sc3c(nc[nH]c3=O)N12,> 100
3,C=CC1(C)CCC2C(=CCC3C2(C)CC(O)C(O)C3(C)COC2OC(C(=O)O)C(O)C(O)C2O)C1 (configuration not stated) (tested in a mixture with another compound),> 100
4,N#Cc1c(N2CCCC2)ncn(-c2ccccc2)c1=O,> 100
5,N#CC1(C#N)N[C@@H](c2ccsc2)[C@H]2C(=O)N(c3ccccc3)C(=O)[C@H]21,> 100
6,O=[N+]([O-])c1ccc2c(c1)/C(=N/N=C1c3ccccc3Cc3ccccc31)c1cc([N+](=O)[O-])cc([N+](=O)[O-])c1-2,4.41
7,CN(C(=O)C(Cc1ccccc1)NC(=O)OC(C)(C)C)C1(C(=O)NC(Cc2ccccc2)C(=O)OCc2ccccc2)CCCC1 (stereo not drawn) (Boc-Phe-[NMeAc5c]-Phe-OBn; configuration not given here),82.6
8,Cc1ccc([N+](=O)[O-])cc1NC1=NCCO1,> 100
9,O=c1ccc(-c2ccccc2)n[nH]1,> 100
10,CCOC(=O)C(SCCO)C(C(=O)OCC)n1cnc2c(=O)[nH]c(NC(C)=O)nc21 (configuration not stated),> 100
11,C#CCNC(CS)C(=O)O (configuration not stated),> 100
12,Cc1ccc(N=NC(=Nc2ccccc2)c2ccc(N(CCC#N)CCC#N)cc2)cc1,> 100
13,Cc1ccccc1C(=O)N1CCc2c([nH]c3ccccc23)C1,> 100
14,NC(=O)NCCCC(NC(=O)OCCCCn1ccc(=O)[nH]c1=O)C(=O)O (configuration not stated),> 100
15,COc1ccc2c(c1)/C(=C/CCN(C)C)c1ccccc1S2,88.6
16,NS(=O)(=O)c1ccc2c(c1)OCCOCCOCCOCCO2,> 100
17,CCOC(=O)/C=C/CC(C)(C)CCOC(C)=O,> 10
18,COC(=O)C([C@H](NC1(c2ccccc2)c2ccccc2-c2ccccc21)C(=O)OC)N(NC(=O)OCc1ccccc1)C(=O)OCc1ccccc1 (mixture of isomers),> 100
